Assay results as given in patent US8993542B2, “Methods of treating viral infections” (priority 2008, dated 2015).
pIC50: −log10 of the molar value.

Tests used:
HIV = assay: microbe, parasite or virus in culture; format: cell-based
HIV-1IIIB = assay: Two-drug combination antiviral assay in CEM cells (CPE), MacSynergy II; format: cell-based; conditions: in combination with CMX157, CEM-SS cells, 95% confidence
[1] = Human immunodeficiency virus 1, PANEL 1, WT
[2] = Human immunodeficiency virus 1, PANEL 2, WT
[3] = Human immunodeficiency virus 1, PANEL 3, 6 TAMs, no 184
[4] = Human immunodeficiency virus 1, PANEL 6, 6 TAMs + 184
[5] = Human immunodeficiency virus 1, PANEL 7, 184V
[6] = Human immunodeficiency virus 1, PANEL 9, 69ins, no 184
[7] = Human immunodeficiency virus 1, PANEL 12, 69ins + 184
[8] = Human immunodeficiency virus 1, PANEL 14, 65R, no 184
[9] = Human immunodeficiency virus 1, PANEL 15, 65R + 184V
[10] = Human immunodeficiency virus 1, PANEL 17, L74V
[11] = Human immunodeficiency virus 1, PANEL 19, L74V + M184V
[12] = Human immunodeficiency virus 1, PANEL 26, 151M, no 184
[13] = Human immunodeficiency virus 1, PANEL 28, 151M + 184
[14] = Human immunodeficiency virus 1, PANEL 29, L74V − SDM
[15] = Human immunodeficiency virus 1, PANEL 30, M184V − SDM
[16] = Human immunodeficiency virus 1, PANEL 31, K65R − SDM
[17] = Human immunodeficiency virus 1, PANEL 33, T215Y
[18] = Human immunodeficiency virus 1, PANEL 34, T215Y + M184V
[19] = Human immunodeficiency virus 1, PANEL 35, M41L + T215Y
[20] = Human immunodeficiency virus 1, PANEL 37, M41L + T215Y + M184V
[21] = Human immunodeficiency virus 1, PANEL 38, M41L + L210W + T215Y
[22] = Human immunodeficiency virus 1, PANEL 39, M41L + L210W + T215Y
[23] = Human immunodeficiency virus 1, PANEL 40, M41L + L210W + T215Y + M184V
[24] = Human immunodeficiency virus 1, PANEL 41, M41L + L210W + T215Y + M184V
[25] = Human immunodeficiency virus 1, PANEL 42, D67N + K70R
[26] = Human immunodeficiency virus 1, PANEL 44, D67N + K70R + T215F + K219E + M184V
[27] = Human immunodeficiency virus 1, PANEL 45, L210W + T215Y
[28] = Human immunodeficiency virus 1, PANEL 46, D67N + K70E
[29] = Human immunodeficiency virus 1, PANEL 47, D67N + K70E + M184V
[30] = Human immunodeficiency virus 1, PANEL 48, K70E + M184V
[31] = PANEL 40, M41L + L210W + T215Y + M184V
[32] = PANEL 41, M41L + L210W + T215Y + M184V
[33] = PANEL 44, D67N + K70R + T215F + K219E + M184V

Cc1cn([C@H]2C=C[C@@H](CO)O2)c(=O)[nH]c1=O [d4T, 2′,3′-didehydro-3′-deoxythymidine]
pIC50 (HIV; [1]): 6.29 | pIC50 (HIV; [2]): 6.32 | pIC50 (HIV; [3]): 5.66 | pIC50 (HIV; [4]): 5.87 | pIC50 (HIV; [5]): 6.34 | pIC50 (HIV; [6]): 5.19 | pIC50 (HIV; [7]): 5.17 | pIC50 (HIV; [8]): 6.11 | pIC50 (HIV; [9]): 6.23 | pIC50 (HIV; [10]): 6.22 | pIC50 (HIV; [11]): 6.38 | pIC50 (HIV; [12]): 5.26 | pIC50 (HIV; [13]): 5.37 | pIC50 (HIV; [14]): 6.20 | pIC50 (HIV; [15]): 6.40 | pIC50 (HIV; [16]): 6.08 | pIC50 (HIV; [17]): 6.08 | pIC50 (HIV; [18]): 6.19 | pIC50 (HIV; [19]): 6.08 | pIC50 (HIV; [20]): 6.07 | pIC50 (HIV; [21]): 5.91 | pIC50 (HIV; [22]): 5.96 | pIC50 (HIV; [23]): 6.06 | pIC50 (HIV; [24]): 5.98 | pIC50 (HIV; [25]): 6.11 | pIC50 (HIV; [26]): 6.10 | pIC50 (HIV; [27]): 6.03 | pIC50 (HIV; [28]): 6.25 | pIC50 (HIV; [29]): 6.38 | pIC50 (HIV; [30]): 6.41 | IC50 Fold Change (HIV; PANEL 1, WT): 0.86 | IC50 Fold Change (HIV; PANEL 2, WT): 0.81 | IC50 Fold Change (HIV; PANEL 3, 6 TAMs, no 184): 3.66 | IC50 Fold Change (HIV; PANEL 6, 6 TAMs + 184): 2.28 | IC50 Fold Change (HIV; PANEL 7, 184V): 0.77 | IC50 Fold Change (HIV; PANEL 9, 69ins, no 184): 11.00 | IC50 Fold Change (HIV; PANEL 12, 69ins + 184): 11.00 | IC50 Fold Change (HIV; PANEL 14, 65R, no 184): 1.30 | IC50 Fold Change (HIV; PANEL 15, 65R + 184V): 0.99 | IC50 Fold Change (HIV; PANEL 17, L74V): 1.01 | IC50 Fold Change (HIV; PANEL 19, L74V + M184V): 0.71 | IC50 Fold Change (HIV; PANEL 26, 151M, no 184): 9.33 | IC50 Fold Change (HIV; PANEL 28, 151M + 184): 7.10 | IC50 Fold Change (HIV; PANEL 29, L74V − SDM): 1.07 | IC50 Fold Change (HIV; PANEL 30, M184V − SDM): 0.68 | IC50 Fold Change (HIV; PANEL 31, K65R − SDM): 1.40 | IC50 Fold Change (HIV; PANEL 33, T215Y): 1.40 | IC50 Fold Change (HIV; PANEL 34, T215Y + M184V): 1.10 | IC50 Fold Change (HIV; PANEL 35, M41L + T215Y): 1.41 | IC50 Fold Change (HIV; PANEL 37, M41L + T215Y + M184V): 1.46 | IC50 Fold Change (HIV; PANEL 38, M41L + L210W + T215Y): 2.06 | IC50 Fold Change (HIV; PANEL 39, M41L + L210W + T215Y): 1.84 | IC50 Fold Change (HIV; [31]): 1.48 | IC50 Fold Change (HIV; [32]): 1.77 | IC50 Fold Change (HIV; PANEL 42, D67N + K70R): 1.31 | IC50 Fold Change (HIV; [33]): 1.32 | IC50 Fold Change (HIV; PANEL 45, L210W + T215Y): 1.58 | IC50 Fold Change (HIV; PANEL 46, D67N + K70E): 0.94 | IC50 Fold Change (HIV; PANEL 47, D67N + K70E + M184V): 0.70 | IC50 Fold Change (HIV; PANEL 48, K70E + M184V): 0.65 | Antagonism Volume, Result 1 (HIV-1IIIB): 0 nM^2 %, μM^2 % or nMμM % | Antagonism Volume, Result 2 (HIV-1IIIB): 0 nM^2 %, μM^2 % or nMμM % | Antagonism Volume, Result 3 (HIV-1IIIB): −1.83 nM^2 %, μM^2 % or nMμM % | Mean Antagonism Volume (n = 3) (HIV-1IIIB): −0.61 nM^2 %, μM^2 % or nMμM % | Mean Synergy Volume (n = 3) (HIV-1IIIB): 15.2 nM^2 %, μM^2 % or nMμM % | Synergy Volume, Result 1 (HIV-1IIIB): 4.47 nM^2 %, μM^2 % or nMμM % | Synergy Volume, Result 2 (HIV-1IIIB): 40.6 nM^2 %, μM^2 % or nMμM % | Synergy Volume, Result 3 (HIV-1IIIB): 0.39 nM^2 %, μM^2 % or nMμM %

Nc1nc(NC2CC2)c2ncn([C@H]3C=C[C@@H](CO)C3)c2n1 [ABC, abacavir]
pIC50 (HIV; [1]): 5.82 | pIC50 (HIV; [2]): 5.78 | pIC50 (HIV; [3]): 5.10 | pIC50 (HIV; [4]): 4.85 | pIC50 (HIV; [5]): 5.32 | pIC50 (HIV; [6]): 4.49 | pIC50 (HIV; [7]): 4.33 | pIC50 (HIV; [8]): 5.24 | pIC50 (HIV; [9]): 4.93 | pIC50 (HIV; [10]): 5.47 | pIC50 (HIV; [11]): 5.03 | pIC50 (HIV; [12]): 4.46 | pIC50 (HIV; [13]): < 4.28 | pIC50 (HIV; [14]): 5.48 | pIC50 (HIV; [15]): 5.33 | pIC50 (HIV; [16]): 5.34 | pIC50 (HIV; [17]): 5.44 | pIC50 (HIV; [18]): 5.12 | pIC50 (HIV; [19]): 5.47 | pIC50 (HIV; [20]): 5.02 | pIC50 (HIV; [21]): 5.30 | pIC50 (HIV; [22]): 5.38 | pIC50 (HIV; [23]): 5.09 | pIC50 (HIV; [24]): 5.05 | pIC50 (HIV; [25]): 5.61 | pIC50 (HIV; [26]): 5.11 | pIC50 (HIV; [27]): 5.44 | pIC50 (HIV; [28]): 5.62 | pIC50 (HIV; [29]): 5.30 | pIC50 (HIV; [30]): 4.98 | IC50 Fold Change (HIV; PANEL 1, WT): 0.86 | IC50 Fold Change (HIV; PANEL 2, WT): 0.94 | IC50 Fold Change (HIV; PANEL 3, 6 TAMs, no 184): 4.43 | IC50 Fold Change (HIV; PANEL 6, 6 TAMs + 184): 7.91 | IC50 Fold Change (HIV; PANEL 7, 184V): 2.69 | IC50 Fold Change (HIV; PANEL 9, 69ins, no 184): 18.00 | IC50 Fold Change (HIV; PANEL 12, 69ins + 184): 26.00 | IC50 Fold Change (HIV; PANEL 14, 65R, no 184): 3.20 | IC50 Fold Change (HIV; PANEL 15, 65R + 184V): 6.64 | IC50 Fold Change (HIV; PANEL 17, L74V): 1.89 | IC50 Fold Change (HIV; PANEL 19, L74V + M184V): 5.21 | IC50 Fold Change (HIV; PANEL 26, 151M, no 184): 19.00 | IC50 Fold Change (HIV; PANEL 28, 151M + 184): >29.2959 | IC50 Fold Change (HIV; PANEL 29, L74V − SDM): 1.85 | IC50 Fold Change (HIV; PANEL 30, M184V − SDM): 2.64 | IC50 Fold Change (HIV; PANEL 31, K65R − SDM): 2.57 | IC50 Fold Change (HIV; PANEL 33, T215Y): 2.06 | IC50 Fold Change (HIV; PANEL 34, T215Y + M184V): 4.29 | IC50 Fold Change (HIV; PANEL 35, M41L + T215Y): 1.89 | IC50 Fold Change (HIV; PANEL 37, M41L + T215Y + M184V): 5.41 | IC50 Fold Change (HIV; PANEL 38, M41L + L210W + T215Y): 2.80 | IC50 Fold Change (HIV; PANEL 39, M41L + L210W + T215Y): 2.36 | IC50 Fold Change (HIV; [31]): 4.60 | IC50 Fold Change (HIV; [32]): 5.02 | IC50 Fold Change (HIV; PANEL 42, D67N + K70R): 1.40 | IC50 Fold Change (HIV; [33]): 4.36 | IC50 Fold Change (HIV; PANEL 45, L210W + T215Y): 2.05 | IC50 Fold Change (HIV; PANEL 46, D67N + K70E): 1.36 | IC50 Fold Change (HIV; PANEL 47, D67N + K70E + M184V): 2.85 | IC50 Fold Change (HIV; PANEL 48, K70E + M184V): 5.88 | Antagonism Volume, Result 1 (HIV-1IIIB): −35.8 nM^2 %, μM^2 % or nMμM % | Antagonism Volume, Result 2 (HIV-1IIIB): −2.32 nM^2 %, μM^2 % or nMμM % | Antagonism Volume, Result 3 (HIV-1IIIB): −12.1 nM^2 %, μM^2 % or nMμM % | Mean Antagonism Volume (n = 3) (HIV-1IIIB): −16.7 nM^2 %, μM^2 % or nMμM % | Mean Synergy Volume (n = 3) (HIV-1IIIB): 14.9 nM^2 %, μM^2 % or nMμM % | Synergy Volume, Result 1 (HIV-1IIIB): 25.1 nM^2 %, μM^2 % or nMμM % | Synergy Volume, Result 2 (HIV-1IIIB): 0 nM^2 %, μM^2 % or nMμM % | Synergy Volume, Result 3 (HIV-1IIIB): 19.7 nM^2 %, μM^2 % or nMμM %
